# Reference: PubChem BioAssay AID1017 (Sanford-Burnham Center for Chemical Genomics, 2008)
# Several values for one entry are separate records, joined by “and”; a condition that tells them apart may be missing. Identical values can stand only once.
# Molecular target: Intestinal-type alkaline phosphatase (Homo sapiens) (UniProt P09923)
# Assay: human IAP enzyme inhibitors, dose response, biochemical, luminescence (AID 1017)
# Conditions: purified human IAP, luminescent substrate
# Sequence of Intestinal-type alkaline phosphatase (Homo sapiens) (P09923 whole entry, looked up): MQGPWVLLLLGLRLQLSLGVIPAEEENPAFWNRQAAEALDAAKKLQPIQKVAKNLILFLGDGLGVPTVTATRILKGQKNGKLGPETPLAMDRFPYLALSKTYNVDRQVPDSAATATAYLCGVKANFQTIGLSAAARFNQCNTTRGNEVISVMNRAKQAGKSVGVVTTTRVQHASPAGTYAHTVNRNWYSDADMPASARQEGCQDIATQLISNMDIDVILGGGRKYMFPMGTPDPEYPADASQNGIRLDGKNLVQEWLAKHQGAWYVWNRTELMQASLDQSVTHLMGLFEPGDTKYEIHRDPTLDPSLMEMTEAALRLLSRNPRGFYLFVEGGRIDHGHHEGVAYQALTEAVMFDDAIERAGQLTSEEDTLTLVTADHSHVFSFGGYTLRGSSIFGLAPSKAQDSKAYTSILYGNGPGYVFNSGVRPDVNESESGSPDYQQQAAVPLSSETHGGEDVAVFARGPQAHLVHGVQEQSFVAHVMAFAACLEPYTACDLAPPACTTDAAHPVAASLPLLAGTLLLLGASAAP
row,IC50,SMILES
1,539 nM and 922 nM,O=C1C2CC=CCC2C(=O)N1c1n[nH]c(Cc2ccccc2)n1 (stereo not drawn)
2,110 nM and 157 nM,O=C1C2CC=CCC2C(=O)N1c1n[nH]c(-c2ccccc2)n1 (stereo not drawn)
3,9950 nM,Oc1ccc(CCN=Cc2c(O)[nH]c3ccccc23)cc1O
